Values quoted from earlier work in patent publication US6774247B2, “Aqueous solution of ascorbic acid and method for producing same” (AquaNova German Solubilisate Technology (AGT) GmbH, priority 2001, dated 2004).

Conditions: aqueous ascorbic acid solution, after 30 days

O=C1O[C@H]([C@@H](O)CO)C(O)=C1O [ascorbic acid]
added ascorbic acid still present: about 70%
